This passage reports QH residual rate results from patent US20250082585A1, “METHOD FOR STORING REDUCED COENZYME Q10” (KANEKA CORPORATION, priority 2021, published 2025).

The nature of the data set: Evaluation of oxidation stability (QH residual rate after storage, QH ratio by HPLC). The data set is classed as physicochemical. As for the experimental part:
The weight ratio of reduced coenzyme Q10 to total coenzyme Q10 (namely, reduced coenzyme Q10/(oxidized coenzyme Q10+reduced coenzyme Q10)) is defined as “QH ratio”. The QH ratio was determined by the following HPLC analysis. For the evaluation of oxidation stability, a rate of the change in the QH ratio at the end of the evaluation from that at the beginning of the evaluation was defined as “QH residual rate”, and the QH residual rate determined by the following expression was used as a measure of oxidation stability.
QH residual rate (%)=100×QH ratio at the end of the evaluation/QH ratio at the beginning of the evaluation […]
In a glass vial (volume 33 ml), 0.1 g of the QH Form I crystal was placed. […] The glass vial was sealed, and stored under a temperature of 40° C. and a relative humidity of 75% for 2 weeks, after which the QH residual rate was determined.
In a glass vial, 0.2 g of the QH Form I crystal was placed. The glass vial was opened, and stored under a temperature of 40° C. and a relative humidity of 11% for 2 weeks, after which the QH residual rate was determined.
In a glass vial (volume 33 ml), 0.1 g of the QH Form I crystal was placed. […] The glass vial was sealed, and stored under a temperature of 25° C. and a relative humidity of 60% for 4 weeks, after which the QH residual rate was determined. […]

As to `COc1c(O)c(C)c(C/C=C(\C)CC/C=C(\C)CC/C=C(\C)CC/C=C(\C)CC/C=C(\C)CC/C=C(\C)CC/C=C(\C)CC/C=C(\C)CC/C=C(\C)CCC=C(C)C)c(O)c1OC` [Comparative Example 1, reduced coenzyme Q10], the QH residual rate (0.2 g QH Form I crystal without water, opened glass vial, 40° C., relative humidity 11%, 2 weeks) came out at 34.9%.
Consider `COc1c(O)c(C)c(C/C=C(\C)CC/C=C(\C)CC/C=C(\C)CC/C=C(\C)CC/C=C(\C)CC/C=C(\C)CC/C=C(\C)CC/C=C(\C)CC/C=C(\C)CCC=C(C)C)c(O)c1OC` [Comparative Example 2, reduced coenzyme Q10], for which the QH residual rate (0.1 g QH Form I crystal, with aqueous solution of Table 3 or without (comparative), sealed glass vial, 25° C., relative humidity 60%, 4 weeks) amounted to 33.3%.
